Peptide text beside a SMILES is read from it. * marks the point of attachment. Cbz = O=C(OCc1ccccc1)*

Data set [1] relates to HdhQ111 / HdhQ7 mouse striatal cells. Put plainly: Mitochondrial membrane potential (TMRM), mouse striatal cells. To be noted: HdhQ111 cells, VCP siRNA, three days. In kind it is cell-based. As for the experimental part: (§1) Immortalized striatal cell lines HdhQ111 mutant and HdhQ7 wt cells were obtained from the CHDI Foundation. Cells were cultured in DMEM supplemented with 10% FBS, 100 μg/ml penicillin, 100 μg ml^−1 streptomycin, and 400 μg ml^−1 G418. Cells were grown at 33 °C in a 5% CO2 incubator. Cells within 14 passages were used in all experiments.
(§2) For silencing Htt and VCP in HD striatal cells, control siRNA, mouse Htt and mouse VCP siRNA were purchased from Thermo Fisher Scientific. HdhQ7 and HdhQ111 cells were transfected either with control siRNA, or Htt or VCP siRNA using TransIT-TKO Transfection Reagent (Mirus Bio, LLC), according to the manufacturer's instructions. The sequences for the siRNAs used in this study are as follows: mouse Htt, 5′-[…]-3′; Mouse VCP, 5′-GAGAGCAACCUUCGUAAG-3′; control non-targeting siRNA, 5′-TTCTCCGAACGTGTCACGT-3′.
To determine mitochondrial mass in cultures, cells were stained with antibodies against Tom20 or stained with Mitotracker green. The fluorescent density of Tom20 (1:500) or mitotracker green was quantitated using NIH Image J software. To measure the membrane potential of mitochondria in cultures, cells were incubated with 0.25 μM tetra-methyl rhodamine (Invitrogen Life Science) for 20 min at 37 °C. To determine lysosomal activity, cells were incubated with Lyso-ID Red dye (Enzo Life Science) for 30 min at 37 °C. The images were visualized by microscope and quantitation of the density of red fluorescence was carried out using NIH ImageJ software. For immunocytochemistry study, at least 100 cells per group were counted and quantitated by an observer blind to experimental conditions.

Data set [2] has as its system HdhQ111 mouse striatal cells. Put plainly: Mitochondria-associated LC3 II level. In kind it is cell-based. Particulars: VCP siRNA, 48 h.
Description: as §2
Cells were washed with cold PBS and incubated on ice for 30 min in a lysis buffer (250 mM sucrose, 20 mM HEPES-NaOH, pH 7.5, 10 mM KCl, 1.5 mM MgCl2, 1 mM EDTA, protease inhibitor cocktail and phosphatase inhibitor cocktail). Mouse brains were minced and homogenized in the lysis buffer and then placed on ice for 30 min. Collected cells or tissue were disrupted 20 times by repeated aspiration through a 25-gauge needle, followed by a 30-gauge needle. The homogenates were spun at 800 g for 10 min at 4 °C, and the resulting supernatants were spun at 10,000 g for 20 min at 4 °C. The pellets were washed with lysis buffer and spun at 10,000 g again for 20 min at 4 °C. The final pellets were suspended in lysis buffer containing 1% Triton X-100 and were mitochondrial-rich lysate fractions. […]
(§3) Protein concentrations were determined by Bradford assay. […]

The test system of data set [3] is HdhQ111 / HdhQ7 mouse striatal cells. Nature of the data set: VCP mitochondrial level, mouse striatal cells (western blot). In kind it is cell-based. To be noted: HdhQ111 cells, Htt siRNA, 3 days. As for the experimental part:
as §1, §2
Cells were washed with cold PBS and incubated on ice for 30 min in a lysis buffer (250 mM sucrose, 20 mM HEPES-NaOH, pH 7.5, 10 mM KCl, 1.5 mM MgCl2, 1 mM EDTA, protease inhibitor cocktail and phosphatase inhibitor cocktail). Mouse brains were minced and homogenized in the lysis buffer and then placed on ice for 30 min. Collected cells or tissue were disrupted 20 times by repeated aspiration through a 25-gauge needle, followed by a 30-gauge needle. The homogenates were spun at 800 g for 10 min at 4 °C, and the resulting supernatants were spun at 10,000 g for 20 min at 4 °C. The pellets were washed with lysis buffer and spun at 10,000 g again for 20 min at 4 °C. The final pellets were suspended in lysis buffer containing 1% Triton X-100 and were mitochondrial-rich lysate fractions. The supernatant was centrifuged at 100,000 g, 4 °C, for 1 h, the pellets were suspended in lysis buffer containing 1% Triton X-100 as ER fractions. The final supernatant was cytosolic fractions. The mitochondrial proteins VDAC, the ER protein WFS1 and the cytosolic protein Enolase were used as loading controls for mitochondrial, ER and cytosolic fractions, respectively.
as §3
(In general: In western blotting, separated proteins are transferred to a membrane and probed.)

The subject of data set [4] is Htt or mtHtt protein in HdhQ7 and HdhQ111 cells. Nature of the data set: Htt/mtHtt protein level (western blot). To be noted: 16 h, n = 3. In kind it is cell-based, mouse. As for the experimental part:
Protein concentrations were determined by Bradford assay. Protein was resuspended in Laemmli buffer, loaded on SDS–PAGE, and transferred onto nitrocellulose membranes. Membranes were probed with the indicated antibodies, followed by visualization with ECL. Representative blots have been cropped for presentation. Images of full-size blots are presented in Supplementary Fig. 9.
Supplementary Figure 3: Htt and mtHtt are not substrates of VCP . Left: HdhQ7 and HdhQ111 cells were treated with MG132 (10 µM for 16 hours). Protein levels of Htt were determined in the total lysates of the cells. Actin was used as a loading control. The representative blots were from three independent experiments. Right: HdhQ7 and HdhQ111 were treated with Eer I (Eeyarestatin I, 5μ M for 16 hours). Protein levels of Htt were determined. Mcl-1, a mitochondrial Bcl-2 family protein, was used as a positive control. Mcl-1 has been reported to be a substrate of VCP on mitochondria and it is degraded via the ubiquitin-proteasome system. The representative blots were from three independent […]
(1 picture or pasted object on this page, not shown here)

Data set [5] relates to VCP. Particulars: cited from earlier work. From the text: We next ask what specific function VCP mediates on mitochondria from HD models. VCP knock-out is lethal in mice[34].

On to “5′-GAGAGCAACCUUCGUAAG-3′ [VCP siRNA, reference compound]”, for which, in data set [1], the mitochondrial membrane potential entry is listed as “similarly promoted the MMP”. Further, in data set [2], the “mitochondria-associated LC3 II” value is given as “reduced the levels of mitochondria-associated LC3 II”.

Regarding “5′-GGUUUAUGAACUGACUUUGTT-3′ [Htt siRNA, reference compound]”, the “VCP translocation to mitochondria” value in data set [3] was “abolished VCP translocation to mitochondria”.

Take `CC1(C)C(N(O)C(=O)Nc2ccc(Cl)cc2)N(c2ccc(Cl)cc2)C(=O)N1CC(=O)N/N=C/C=C/c1ccc([N+](=O)[O-])o1` (stereo not drawn) [Eeyarestatin I]: in data set [4] (Eeyarestatin I 5 μM), the “Htt or mtHtt protein levels” value is recorded as “did not affect Htt or mtHtt protein levels”. In data set [5], the cell death entry is given as “rapidly lead to cell death” and the specificity result is “non-specific”.

Regarding `CC(C)C[C@@H](C=O)NC(=O)[C@H](CC(C)C)NC(=O)[C@H](CC(C)C)NC(=O)OCc1ccccc1` [MG132] (Cbz-Leu-Leu-Leu-aldehyde), the “Htt or mtHtt protein levels” value in data set [4] (MG132 10 µM) was “did not affect Htt or mtHtt protein levels”.

In the case of `c1ccc(CNc2nc(NCc3ccccc3)c3ccccc3n2)cc1` [N2,N4-dibenzylquinazoline-2,4-diamine], in data set [5], the cell death entry was “rapidly lead to cell death” and the specificity entry is “non-specific”.

(Values after PMC5007466, “VCP recruitment to mitochondria causes mitophagy impairment and neurodegeneration in models of Huntington's disease” (Nature Communications, 2016).)
